Laboratory results published in article PMC5108032, “Discovery of a Quinoline-4-carboxamide Derivative with a Novel Mechanism of Action, Multistage Antimalarial Activity, and Potent in Vivo Efficacy” (Journal of Medicinal Chemistry, 2016).
Values joined by “and” are separate entries in the source; they are usually repeats but may differ in a detail not shown here. Equal values may be shown once. Read-outs that look alike come from different tables or passages of the source. Marks after values point to notes of the source that are not given here.

Columns and labels:
[1] = design: method as in PMID 26085270; settings: mouse liver microsome; cited from earlier work
[2] = design: method as in PMID 26085270; settings: mouse, iv dose 1 mg/kg; cited from earlier work
[3] = design: method as in PMID 26085270; settings: male Sprague Dawley rat, intravenous at 1 mg/kg; cited from earlier work
[4] = design: method as in PMID 26085270; settings: rat liver microsome; cited from earlier work
[5] = design: method as in PMID 26085270; settings: mouse plasma protein binding; cited from earlier work
P. berghei ANKA strain = assay: In vivo antimalarial efficacy in the P. berghei mouse model (Peter's test); design: species or system Plasmodium berghei in female NMRI mice; settings: for cure / inhibition in vivo at 1 mg/kg: once daily; for cure: mice cured / mice in group; for inhibition in vivo at 1 mg/kg: Plasmodium berghei, po, 96 h, 4 × 1 mg/kg oral, read-out: activity (reduction of parasitemia)
Description: Compound 41 was dosed as a bolus solution intravenously at 1 mg free base/kg (dose volume: 5 mL/kg; dose vehicle: 5% DMSO;saline) or by gavage orally as solution at 3 mg free base/kg (dose volume: 10 mL/kg; Dose vehicle: 0.5% w/v hydroxypropylmethylcellulose with 0.4% v/v Tween 80 and 0.5% v/v benzyl alcohol) to male Sprague Dawley rats (n=3/dose route). Blood samples were taken from each rat at 5, 15, 30 min, 1, 2, 4, 6, 8, 24 and 30 h post-dose, mixed with two volumes of distilled water and stored frozen until UPLC/MS/MS analysis.
Pharmacokinetic parameters were derived from the blood concentration time curve for each compound using PKsolutions software v 2.0 (Summit Research Services, USA).
In vivo antimalarial efficacy studies in P. berghei. (Swiss TPH)
In vivo efficacy was conducted as previously described10 with the modification that female NMRI mice (n = 3) were infected with a GFP-transfected P. berghei ANKA strain (donated by A. P. Waters and C. J. Janse, Leiden University, The Netherlands), and parasitaemia determined (96 h after infection) using standard flow cytometry techniques. Compounds 1, 25, 27, 30 and 49 were prepared in 10% DM SO, 40% PEG 400 and 50% water prior to administration orally, once daily for 4 days.
Compounds 40, 41, 43 and 44 were prepared in a non-solubilizing, standard suspension vehicle called HPMC (0.5% [wt/vol] hydroxypropylmethylcellulose, 0.5% [vol/vol] benzyl alcohol, 0.4% [vol/vol] Tween 80, and 0.9% [wt/vol] sodium chloride in water) prior to administration orally, once daily for 4 days. Blood samples were collected on day 4 (96 h after infection) in two volumes water. Animals […]
and then hourly up to 4 h after dosing each day. The animals were selected randomly for each group

[6] = design: method as in PMID 26085270; settings: pH 7.4; cited from earlier work
[7] = design: method as in PMID 26085270; settings: human liver microsome; cited from earlier work
[8] = Parallel artificial membrane permeability assay (PAMPA); type: in vitro ADME
Pf (3D7) = assay: Ligand efficiency metrics (LE, LLE, LELP), selectivity and fold changes; design: species or system Plasmodium falciparum
[9] = design: method as in PMID 26085270; settings: potentiometric titration, value in parentheses; cited from earlier work
[10] = Mammalian cell growth inhibition counter-screen (resazurin); type: cell-based, human; settings: human, MRC-5 cells (normal diploid human fibroblasts)
Description: (§1) Plasmodium falciparum screening
(§2) Assays against P. falciparum were conducted as previously described.1 Cultures of the widely-used malaria reference strain of chloroquine-sensitive Plasmodium falciparum strain 3D7 were maintained in a 5% suspension of human red blood cells (obtained from East of Scotland Blood Transfusion Service, Ninewells Hospital, Dundee) cultured in RPMI 1640 medium (pH 7.3) supplemented with 0.5% Albumax II (Gibco Life Technologies, San Diego, CA), 12 mM sodium bicarbonate, 0.2 mM hypoxanthine and 20 mg/L gentamicin at 37°C, in a humidified atmosphere of 1% O 2, 3% CO2 with a balance of nitrogen. Growth inhibition was quantified using a fluorescence assay utilising the binding of SYBR green to double stranded DNA, which emits a fluorescent signal at 528 nm after excitation at 485nm.2 Mefloquine (potency range 30-60 nM) was used as a drug control to monitor the quality of the assay (Z’ = 0.6 to 0.8, Signal to background >3, where Z’ is a measure of the discrimination between the positive and negative controls on a screen plate). A 96-well [3H]-Hypoxanthine incorporation assay was also developed as a secondary assay in order to validate compounds from the initial screen in an orthogonal platform.3 Compound bioactivity from both assays was expressed as […]
(§3) P. falciparum (panel of resistant strains) in vitro assay. (Swiss TPH)
(§4) All Plasmodium strains were cultured according to Trager and Jensen and are described at www.beiresources.org (resistant strains: K1, W2, 7G8, TM90C2A, D6 and V1/S, sensitive strain:
(§5) NF54). EC50 values were determined in vitro by measuring incorporation of the nucleic acid precursor […]
(§6) Mammalian Cell Growth Inhibition assay
(§7) A counter-screen against normal diploid human fibroblasts (MRC-5 cell line) was carried out to exclude non-selective, and toxic compounds. The assay was essentially carried out as described previously.4 Cells were plated and incubated overnight to allow them to adhere as monolayers. A working stock of each test compound was transferred to an intermediate 384-well plate and pre-diluted with minimum essential media (MEM). The pre-diluted stocks were then transferred onto the cell monolayers, and the plates were incubated for 68 h. Resazurin, to a final concentration of 50 μM, was added to each well, after which plates were incubated for a further 3 h and measured for fluorescence (λex=528 nm, λem=590 nm)
(§8) In vitro Cell Assay Data Analysis.
(§9) All data was processed using IDBS ActivityBase® raw data was converted into per cent inhibition through linear regression by setting the high inhibition control as 100% and the no inhibition control as 0%. Quality control criteria for passing plates were as follows: Z’> 0.5, S:B> 3, %CV(no inhibition < 15 . The formula used to calculate Z’ is 1 3× (St D e v _ hi gh + St D e v _ low) . […]
(§10) All EC50 Curve fitting was undertaken using XLFit version 4.2 using Model 205 with the following 4 parametric equation: y = A + B A A + ($-&) ,where A=% inhibition at bottom, B=% […]
(§11) inhibition at top, C= EC50, D= slope, x= inhibitor concentration and y= % inhibition. […]
(§12) reach 100% of inhibition, B was fixed to 100 only when at least 50% of inhibition was reached.
(§13) Plasmodium falciparum late stage (IV-V) gametocyte high content imaging assay Plasmodium falciparum NF54-pfs16-LUC-GFP stage IV-V Gametocytes were produced as described previously.5 Compounds were solubilized in DMSO and serially diluted in three concentrations per log standard curves in DM SO. One µl of compound was subsequently diluted in 25µl of water (4% DMSO) and 5µl transferred into the base of 384 well PerkinElmer CellCarrier plates. Forty-five µl of stage IV-V gametocytes (10%P in 0.1%H) were added to the imaging plates which were in turn sealed with a gas permeable membrane and incubated at 37°C, 5% CO 2, 5% O2, 90% N2 and 60% humidity […]
(§14) Post incubation, 5µl of MitoTracker® Red CM -H2Xros (MTR) solution (0.66ug/ml) was added to all wells and the plates incubated for a further 16hours. […]

[11] = system: Plasmodium falciparum strain 3D7; assay: Plasmodium falciparum screening, SYBR green growth inhibition; type: cell-based; settings: 3D7, supplementary csv, read-out: Pf (3D7) EC50
Description: as §1, §2, §3, §4, §5, §6, §7, §8, §9, §10, §11, §12, §13, §14

[12] = Intrinsic clearance (Cli) in mouse liver microsomes; type: in vitro ADME; settings: mouse liver microsome
Description: as §11, §12, §13
(§15) Post incubation, 5µl of MitoTracker® Red CM -H2Xros (MTR) solution (0.66ug/ml) was added to all wells and the plates incubated for a further 16hours. The assay plates were then imaged and the number of viable gametocytes determined for test compounds plus 0.4%DMSO and 5µM Puromycin.
(§16) (0.4%DMSO) control values. Percent inhibition was plotted against log compound concentration using a 4 parameter log dose, non-linear regression analysis, with sigmoidal dose response (variable slope) curve fit using Prizm 4.0. IC50 values were obtained from this curve fit. The compound testing was performed in duplicate point within two separate experiments.
(§17) Plasmodium berghei ookinete development assay
(§18) Assay was performed as previously reported.6 Briefly blood containing P. berghei CTRPp-GFP gametocytes was rapidly harvested from infected mice and introduced to test compounds pre-diluted in ookinete medium (to induce gamete formation and support ookinete development) in 96-well plates. Plates were incubated in the dark at 21°C for 22 hr before GFP fluorescence intensity measured in a plate reader. % inhibition of ookinete formation was calculated with reference to the fluorescence intensity values of a positive control (20 µM cycloheximide) and a solvent-only negative control (DMSO). All assays were performed in triplicate independent experiments and EC50 values calculated in Graphpad Prism.
(§19) The aqueous solubility of the test compounds was measured using laser nephelometry, as described previously.7 Compounds were subject to serial dilution from 10 mg/mL to 0.5 mg/mL in DMSO. An aliquot was then mixed with MilliQ water to obtain an aqueous dilution plate with a final concentration range of 100 – 5 μg/mL, with a final DMSO concentration of 1.0%. Triplicate aliquots were transferred to a flat bottomed polystyrene plate which was immediately read on the NEPHELOstar (BMG Lab Technologies). The amount of laser scatter caused by insoluble particulates (relative nephelometry units, RNU) was plotted against compound concentration using a segmental regression fit, with the point of inflection being quoted as the compounds aqueous solubility (μg/mL; […]
(§20) Intrinsic Clearance (Cli) experiments
(§21) The procedure was carried out as reported previously.7 Test compound (0.5 µM) was incubated with female CD1 mouse, male sprague-dawley rat or pooled human mixed gender liver microsomes (Xenotech LLC TM; 0.5 mg/mL 50 mM potassium phosphate buffer, pH 7.4) and the reaction initiated […]
by the addition of excess NADPH (8 mg/mL 50 mM potassium phosphate buffer, pH 7.4).
Immediately, at time zero, then at 3, 6, 9, 15 and 30 min an aliquot (50 μL) of the incubation mixture was removed and mixed with acetonitrile (100 μL) to stop the reaction. Internal standard was added to all samples, the samples centrifuged to sediment precipitated protein and the plates then sealed prior to UPLC-MS/MS analysis using a Quattro Premier XE (Waters Corporation, USA).
XLfit (IDBS, UK) was used to calculate the exponential decay and consequently the rate constant (k) from the ratio of peak area of test compound to internal standard at each timepoint. The rate of […]

[13] = Experimental pKa by potentiometric titration; type: physicochemical; settings: value in parentheses, read-out: R^3 group pKa, experimental
Description: Table 4 SAR Study of the R^3 Substituent: Aromatic Groups | column: R^3 group pKa^a

[14] = Intrinsic clearance (Cli) in rat liver microsomes; type: in vitro ADME; settings: rat liver microsome
Description: as §11, §12, §13, §15, §16, §17, §18, §19, §20, §21
(§22) by the addition of excess NADPH (8 mg/mL 50 mM potassium phosphate buffer, pH 7.4). […]

[15] = Intrinsic clearance (Cli) in human liver microsomes; type: in vitro ADME; settings: human liver microsome
Description: as §11, §12, §13, §15, §16, §17, §18, §19, §20, §21, §22

[16] = Pf (3D7), relative to the comparator compound of the sentence

Structure (SMILES): O=C(NCCN1CCCC1)c1cc(-c2ccc(CN3CCOCC3)cc2)nc2ccc(F)cc12 [Compound 2]
- MLM Cli [1]: <0.5 mL min^–1 g^–1
- Clb [2]: 12 ^b mL min^–1 kg^–1
- Clb [3]: 18 mL min^–1 kg^–1
- RLM Cli [4]: ≤0.8 mL min^–1 g^–1
- PPB [5]: 63%
- cure (P. berghei ANKA strain; 4 × 3 mg/kg oral): 2/3
- cure (P. berghei ANKA strain; 4 × 10 mg/kg oral): 3/3
- cure (P. berghei ANKA strain; 4 × 30 mg/kg oral, 30 mg/kg): complete cure and 3/3
- ED90 (P. berghei ANKA strain; dosed orally for 4 days): 0.1 to 0.3 mg/kg
- PAMPA Pe [6]: 7.3 ×10⁻⁶ cm/s
- HLM Cli [7]: ≤1.1 mL min^–1 g^–1
- increase in permeability ([8]; relative to the earlier lead): more than 30 fold
- LLE (ligand-lipophilicity efficiency) (Pf (3D7)): 5.9
- improvement / increase in potency (Pf (3D7); [16]): 70 fold
- R^3 group pKa, experimental [9]: 6.8

Structure (SMILES): Cc1ccc(-c2cc(C(=O)Nc3cccnc3)c3ccccc3n2)cc1 [Compound 12, N-(Pyridine-3-yl)-2-(p-tolyl)quinoline-4-carboxamide]
- EC50 at 68 h [10]: > 50 µM
- drop in potency (Pf (3D7); [16]): 8 fold

Structure (SMILES): O=C(NCCN1CCCC1)c1cc(NCCC2CCOCC2)nc2ccc(F)cc12 [Compound 29, 6-Fluoro-N-(2-(pyrrolidin-1-yl)ethyl)-2-((2-(tetrahydro-2H-pyran-4-yl)ethyl)amino)quinoline-4-carboxamide]
- EC50 at 68 h [10]: > 50 µM
- EC50 [11]: 0.0017 µM

Structure (SMILES): O=C(NCCN1CCCC1)c1cc(-c2ccc(C(=O)N3CCOCC3)cc2)nc2ccc(F)cc12 [Compound 39, 6-Fluoro-2-(4-(morpholine-4-carbonyl)phenyl)-N-(2-(pyrrolidin-1-yl)ethyl)quinoline-4-carboxamide]
- EC50 at 68 h [10]: > 50 µM

Structure (SMILES): O=C(NCCN1CCCC1)c1cc(-c2ccc(CN3CCOCC3)c(F)c2)nc2ccc(F)cc12 [Compound 40]
- MLM Cli [12]: 1.0 mL min^–1 g^–1
- inhibition in vivo at 1 mg/kg (P. berghei ANKA strain): > 99%
- pKa [13]: 6.1

Structure (SMILES): O=C(NCCN1CCCC1)c1cc(-c2ccc(CN3CCS(=O)(=O)CC3)cc2)nc2ccc(F)cc12 [Compound 43]
- MLM Cli [12]: <0.5 mL min^–1 g^–1
- RLM Cli [14]: 0.8 mL min^–1 g^–1
- inhibition in vivo at 1 mg/kg (P. berghei ANKA strain): > 99%

Structure (SMILES): O=C(NCCN1CCCC1)c1cc(-c2ccc(CN3CCCC3=O)cc2)nc2ccc(F)cc12 [Compound 44]
- MLM Cli [12]: 2.0 mL min^–1 g^–1
- RLM Cli [14]: 0.6 mL min^–1 g^–1
- HLM Cli [15]: 2 mL min^–1 g^–1

Structure (SMILES): CC(C)NCC(O)COc1cccc2ccccc12 (stereo not drawn) [propanolol, reference compound]
- Papp at 5 h, 10 µM ([8]; pH 7.4, read-out: PAMPA Pe): 15.9 ×10⁻⁶ cm/s
